Activity calls are given as the source filed them. The calls are words filed in the database; no cut-off is given here.
target: Dual 3',5'-cyclic-AMP and -GMP phosphodiesterase 11A (Homo sapiens) (UniProt Q9HCR9); assay: Inhibition of recombinant N-terminal GST-tagged human PDE11A4 (1 to 943 residues) expressed in Sf9 cells at 500 nM using cGMP and cAMP as substrates by Ba(OH)2 precipitation method relative to control
Sequence (Q9HCR9 whole entry, looked up, the tested form may be a part): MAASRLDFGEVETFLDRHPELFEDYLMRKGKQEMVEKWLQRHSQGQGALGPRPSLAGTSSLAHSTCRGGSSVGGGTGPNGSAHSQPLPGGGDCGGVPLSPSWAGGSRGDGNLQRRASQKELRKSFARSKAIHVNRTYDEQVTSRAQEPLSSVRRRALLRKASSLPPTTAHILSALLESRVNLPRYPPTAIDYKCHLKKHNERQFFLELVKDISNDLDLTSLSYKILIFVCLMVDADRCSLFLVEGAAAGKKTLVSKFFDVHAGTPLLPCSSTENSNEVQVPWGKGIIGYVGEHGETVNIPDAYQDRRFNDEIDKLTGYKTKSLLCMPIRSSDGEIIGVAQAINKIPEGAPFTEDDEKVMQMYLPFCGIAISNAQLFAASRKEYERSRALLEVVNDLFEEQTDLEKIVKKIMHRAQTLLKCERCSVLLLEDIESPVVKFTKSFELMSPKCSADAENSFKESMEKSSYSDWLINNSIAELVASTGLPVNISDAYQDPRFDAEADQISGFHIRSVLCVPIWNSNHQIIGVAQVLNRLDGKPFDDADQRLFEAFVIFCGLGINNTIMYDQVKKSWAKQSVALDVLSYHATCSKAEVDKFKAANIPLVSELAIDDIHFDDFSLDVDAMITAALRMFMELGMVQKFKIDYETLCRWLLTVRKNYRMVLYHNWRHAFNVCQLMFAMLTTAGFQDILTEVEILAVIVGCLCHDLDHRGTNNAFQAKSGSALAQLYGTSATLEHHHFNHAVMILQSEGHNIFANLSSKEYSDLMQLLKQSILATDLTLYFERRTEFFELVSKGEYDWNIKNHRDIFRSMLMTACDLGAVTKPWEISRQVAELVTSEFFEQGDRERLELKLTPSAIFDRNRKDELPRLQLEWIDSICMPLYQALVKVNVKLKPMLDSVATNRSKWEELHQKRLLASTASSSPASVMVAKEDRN

inhibition | SMILES
inactive | CCN(CC)C(=O)c1ccnc2c1c(C)nn2-c1ccccc1
51% | CCN(CC)C(=O)c1cc(-c2ccnn2C)nc2c1c(C)nn2-c1ccc(Cl)c(F)c1
1% | Cc1nn(-c2ccccc2)c2nc(-c3cccs3)cc(C(=O)N3CCCC3)c12
